Drawing on PubChem BioAssay AID248 (DTP/NCI, 2004), this text covers T/C for 19 compounds.

Values joined by “and” are separate entries in the source; they are usually repeats but may differ in a detail not shown here. Equal entries are not always repeated. Inconclusive results and toxic doses are left out.

The assay relates to L1210 leukemia ip in BDF1 mice, survival T/C. In words: NCI In Vivo Anticancer Drug Screen. Data for tumor model L1210 Leukemia (intraperitoneal) in B6D2F1 (BDF1) mice. To be noted: endpoint: mean survival time, higher = longer survival. The method in brief:
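Tumor was transplanted into mice, which were then dosed with test compound or vehicle alone. Survival was recorded for each group, and the treated figure was expressed relative to the control figure.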

Setting [1] is: dose: 100.0 mg/kg/injection, schedule: Q04DX003 (ip), vehicle: Klucel (hydroxypropylcellulose) (HPC).
The mark [2] stands for this setting: dose: 200.0 mg/kg/injection, schedule: Q04DX003 (ip), vehicle: Klucel (hydroxypropylcellulose) (HPC).
Setting [3] is: dose: 400.0 mg/kg/injection, schedule: Q04DX003 (ip), vehicle: Klucel (hydroxypropylcellulose) (HPC).
Where [4] appears, read: dose: 100.0 mg/kg/injection, schedule: Q01DX009 (ip), vehicle: Klucel (hydroxypropylcellulose) (HPC).
Setting [5] is: dose: 200.0 mg/kg/injection, schedule: Q01DX009 (ip), vehicle: Klucel (hydroxypropylcellulose) (HPC).
[6] abbreviates: dose: 400.0 mg/kg/injection, schedule: Q01DX009 (ip), vehicle: Klucel (hydroxypropylcellulose) (HPC).
The mark [7] stands for this setting: dose: 100.0 mg/kg/injection, schedule: Q04DX003 (ip), vehicle: saline with Tween-80.
Where [8] appears, read: dose: 200.0 mg/kg/injection, schedule: Q04DX003 (ip), vehicle: saline with Tween-80.
The mark [9] stands for this setting: dose: 400.0 mg/kg/injection, schedule: Q01DX001 (ip), vehicle: Klucel (hydroxypropylcellulose) (HPC).
Setting [10] is: dose: 100.0 mg/kg/injection, schedule: Q01DX001 (ip), vehicle: carboxymethylcellulose (CMC).
[11] abbreviates: dose: 200.0 mg/kg/injection, schedule: Q01DX001 (ip), vehicle: carboxymethylcellulose (CMC).
The mark [12] stands for this setting: dose: 50.0 mg/kg/injection, schedule: Q01DX009 (ip), vehicle: Klucel (hydroxypropylcellulose) (HPC).
Setting [13] is: dose: 75.0 mg/kg/injection, schedule: Q01DX001 (ip), vehicle: other.
Where [14] appears, read: dose: 150.0 mg/kg/injection, schedule: Q01DX001 (ip), vehicle: other.
The mark [15] stands for this setting: dose: 100.0 mg/kg/injection, schedule: Q01DX001 (ip), vehicle: other.
Setting [16] is: dose: 400.0 mg/kg/injection, schedule: Q04DX003 (ip), vehicle: saline with Tween-80.

`Cc1cc(=O)oc2cc(OC(=O)Nc3ccc(F)c(Cl)c3)ccc12`: the T/C was 102 % of control (dose: 3.12 mg/kg/injection, schedule: Q01DX009 (ip), vehicle: Klucel (hydroxypropylcellulose) (HPC)); 96 % of control (dose: 6.25 mg/kg/injection, schedule: Q01DX009 (ip), vehicle: Klucel (hydroxypropylcellulose) (HPC)); 93 % of control and 92 % of control (dose: 12.5 mg/kg/injection, schedule: Q01DX009 (ip), vehicle: Klucel (hydroxypropylcellulose) (HPC)); 97 % of control under setting [1]; 100 % of control under setting [2]; 101 % of control under setting [3].
On to `CSc1ncnc2c1C[P+](Cc1ccccc1)(c1ccccc1)CC2` (configuration not stated), for which, for the setting “dose: 100.0 mg/kg/injection, schedule: Q04DX002 (ip), vehicle: saline with Tween-80”, the T/C is 103 % of control.
For `Cc1cccc(Cl)c1NC(=O)Nc1onc(C)c1C`, the T/C under setting [4] is 103 % of control, the T/C under setting [5] is 100 % of control and the T/C under setting [6] is 92 % of control.
`CCCCCCCCCCOC(=O)CCN1CC1`: the T/C reads like this: under setting [7], 109 % of control; under setting [8], 96 % of control.
`NC(Cc1ccccc1)c1ccc2oc3ccccc3c2c1` (configuration not stated): the T/C reads like this: (dose: 100.0 mg/kg/injection, schedule: Q01DX001 (ip), vehicle: Klucel (hydroxypropylcellulose) (HPC)) 96 % of control; (dose: 200.0 mg/kg/injection, schedule: Q01DX001 (ip), vehicle: Klucel (hydroxypropylcellulose) (HPC)) 100 % of control; under setting [9], 103 % of control.
As to `O=NN(CCCl)C(=O)Nc1ccc2c(c1)OCO2`, the T/C by setting is: (dose: 4.0 mg/kg/injection, schedule: Q01DX009 (ip), vehicle: other) 155 % of control; (dose: 6.0 mg/kg/injection, schedule: Q01DX009 (ip), vehicle: other) 163 % of control; (dose: 9.0 mg/kg/injection, schedule: Q01DX009 (ip), vehicle: other) 170 % of control; (dose: 13.0 mg/kg/injection, schedule: Q01DX009 (ip), vehicle: other) 173 % of control; (dose: 20.0 mg/kg/injection, schedule: Q01DX001 (ip), vehicle: other) 180 % of control; (dose: 20.0 mg/kg/injection, schedule: Q01DX009 (ip), vehicle: other) 164 % of control. Further, the T/C was 157 % of control (dose: 22.0 mg/kg/injection, schedule: Q01DX009 (ip), vehicle: carboxymethylcellulose (CMC)); 170 % of control (dose: 30.0 mg/kg/injection, schedule: Q01DX001 (ip), vehicle: other); 166 % of control and 185 % of control (dose: 30.0 mg/kg/injection, schedule: Q01DX009 (ip), vehicle: other); 104 % of control (dose: 44.0 mg/kg/injection, schedule: Q01DX009 (ip), vehicle: other); 226 % of control (dose: 66.0 mg/kg/injection, schedule: Q01DX001 (ip), vehicle: other); 151 % of control (dose: 88.0 mg/kg/injection, schedule: Q01DX001 (ip), vehicle: saline). Further, the T/C is, setting by setting: under setting [10], 151 % of control; under setting [11], 160 % of control.
As to `C1=C(c2ccccc2)CCC1`, the T/C reads like this: under setting [12], 97 % of control; under setting [4], 97 % of control; under setting [1], 97 % of control; under setting [5], 100 % of control; under setting [2], 101 % of control.
As for `CC1(C)C2CC1C(O)(C(=O)O)C2` (configuration not stated), the T/C was 94 % of control (dose: 75.0 mg/kg/injection, schedule: Q01DX001 (ip), vehicle: acetone); 97 % of control (dose: 150.0 mg/kg/injection, schedule: Q01DX001 (ip), vehicle: acetone); 96 % of control (dose: 300.0 mg/kg/injection, schedule: Q01DX001 (ip), vehicle: acetone).
In the case of `CCCCCCCCCCCCP(=O)(O)O`, the T/C is 94 % of control under setting [13] and 97 % of control under setting [14].
In the case of `CCCCN(C)N=Nc1c(Cl)cc(Cl)cc1C(N)=O`, the T/C reads like this: under setting [15], 106 % of control; under setting [1], 106 % of control; (dose: 200.0 mg/kg/injection, schedule: Q01DX001 (ip), vehicle: other) 107 % of control; under setting [5], 95 % of control; (dose: 264.0 mg/kg/injection, schedule: Q01DX001 (ip), vehicle: Klucel (hydroxypropylcellulose) (HPC)) 114 % of control; under setting [9], 124 % of control. Further, the T/C under setting [3] was 181 % of control.
Consider `Cc1cc(OC(=O)Nc2cccc(C(F)(F)F)c2)c(C)cc1Cl`, for which the T/C reads like this: under setting [4], 106 % of control; under setting [5], 118 % of control; under setting [6], 102 % of control.
In the case of `Cc1cnc2c(NC(=O)CCl)nn(C)c2n1`, the T/C by setting is: (dose: 25.0 mg/kg/injection, schedule: Q01DX009 (ip), vehicle: Klucel (hydroxypropylcellulose) (HPC)) 98 % of control; under setting [12], 93 % of control; under setting [4], 93 % of control and 91 % of control; under setting [1], 91 % of control; under setting [2], 93 % of control.
Regarding `CCOC(=O)CCCCCCCCCC[N+](CC)(CC)CC(=O)c1ccc(NC(C)=O)cc1`, the T/C runs as follows: under setting [13], 96 % of control; under setting [14], 101 % of control.
On to `COc1ccc(C(OC2OC(n3cnc4c(=S)nc(N)[nH]c43)CC2OC(C)=O)(c2ccccc2)c2ccc(OC)cc2)cc1` (configuration not stated), for which the T/C under setting [4] is 97 % of control; the T/C under setting [1] was 101 % of control; the T/C under setting [5] is 97 % of control; the T/C under setting [2] was 97 % of control; the T/C under setting [6] was 95 % of control; the T/C under setting [3] is 97 % of control.
Turning to `O=C(Cc1ccc(F)cc1)c1ccccc1`, the T/C is, setting by setting: under setting [7], 98 % of control; under setting [8], 98 % of control; under setting [16], 96 % of control.
Consider `O=C(O)c1cc(N=Nc2ccccc2C(=O)O)ccc1O`, for which the T/C under setting [1] is 92 % of control, the T/C under setting [2] is 94 % of control and the T/C under setting [3] was 112 % of control.
For the compound `O=P(Oc1ccccc1)(N1CCCCC1)N1CCCCC1`, the T/C is 96 % of control (dose: 25.0 mg/kg/injection, schedule: Q01DX001 (ip), vehicle: other); 97 % of control and 101 % of control (dose: 25.0 mg/kg/injection, schedule: Q01DX009 (ip), vehicle: carboxymethylcellulose (CMC)); 97 % of control (dose: 25.0 mg/kg/injection, schedule: Q04DX003 (ip), vehicle: other); 91 % of control (dose: 50.0 mg/kg/injection, schedule: Q01DX001 (ip), vehicle: other); 108 % of control (dose: 50.0 mg/kg/injection, schedule: Q04DX003 (ip), vehicle: other); 106 % of control under setting [15]. Besides, the T/C was 95 % of control and 100 % of control (dose: 100.0 mg/kg/injection, schedule: Q04DX002 (ip), vehicle: carboxymethylcellulose (CMC)); 93 % of control (dose: 100.0 mg/kg/injection, schedule: Q04DX003 (ip), vehicle: other); 104 % of control and 106 % of control (dose: 200.0 mg/kg/injection, schedule: Q04DX002 (ip), vehicle: carboxymethylcellulose (CMC)); 92 % of control (dose: 200.0 mg/kg/injection, schedule: Q04DX003 (ip), vehicle: carboxymethylcellulose (CMC)).
`CCOC(=O)C(CN(CC)CC)c1ccccc1` (configuration not stated): the T/C by setting is: (dose: 88.8 mg/kg/injection, schedule: Q01DX001 (ip), vehicle: carboxymethylcellulose (CMC)) 97 % of control and 105 % of control; under setting [10], 118 % of control; (dose: 133.0 mg/kg/injection, schedule: Q01DX001 (ip), vehicle: carboxymethylcellulose (CMC)) 97 % of control and 98 % of control; under setting [11], 105 % of control and 109 % of control; (dose: 300.0 mg/kg/injection, schedule: Q01DX001 (ip), vehicle: carboxymethylcellulose (CMC)) 98 % of control and 106 % of control; (dose: 400.0 mg/kg/injection, schedule: Q01DX001 (ip), vehicle: carboxymethylcellulose (CMC)) 115 % of control.
Turning to `O=C(O)C(Br)C(Br)c1ccccc1` (configuration not stated), the T/C is, setting by setting: under setting [7], 101 % of control; under setting [8], 106 % of control; under setting [16], 96 % of control.
